From patent US20240382487A1, “NOVEL COPI/ARF1-LIPOLYSIS PATHWAY INHIBITOR AND COMPOUND FOR ERADICATING CANCER STEM CELLS AND INDUCING DAMP-MEDIATED ANTI-TUMOR IMMUNE RESPONSE” (FUDAN UNIVERSITY, priority 2020, published 2024)
Where two headings read alike, the source gives them in different places.

What was measured:
B16-F10 melanoma [1] = assay: Vaccination model, drug-treated B16-F10 cells in C57B/6 mice; assay type: in vivo; parameters: unit not given here; details: B16-F10, C57B/6 mice; for tumor size, left side with drug treatment: cells treated with 10 μM Du 102
[2] = tested on: colorectal cancer cell line LoVo; assay: In vitro cell line screening, LoVo; assay type: cell-based
Text: In different tumor cytotoxicity experiments in vitro (FIG. 2-FIG. 7), including colorectal cancer cell lines HT29 and LoVo cells, liver cancer cell Huh7, lung cancer cells H460 and A549, the arf1 inhibitor could all inhibit tumor cell growth (FIG. 2-FIG. 6), and there was a dose-dependent manner (FIG. 7).

[3] = tested on: MHC expression, CD4 and CD8 T cell infiltration; assay: MHC expression and T-cell infiltration in MYC-ON mice; assay type: in vivo
Text: Du 102 treatment increases MHC expression. CD4 and CD8 T cell infiltration as quantified by Q-PCR in myc-on mice (Table 16).
MHC-1 or MHC-II positive infiltrating CD4+ and CD8+ T-cells measured by immunohistochemical staining of representative section.

4T1 breast carcinoma [4] = assay: Vaccination model, drug-treated 4T1 cells in BALB/c mice; assay type: in vivo; parameters: unit not given here; details: 4T1, BALB/c mice; for tumor size, left side with drug treatment: cells treated with 10 μM Du 102
Arf1 = biological target: T1, Arf1 (Homo sapiens, UniProt P84077); assay: Active Arf1 Pull-Down and Detection Kit (GTP-bound Arf1); assay type: biochemical; details: liver cancer Huh-7 cell lysate; FIG. 1
T1 construct: Active Arf1 was detected by using The Thermo Scientific Pierce Active Arf1 Pull-Down and Detection Kit (Cat #16121) with liver cancer Huh-7 cell lysate; endogenous in cells; host or cells: Huh-7 liver cancer cells (lysate)
Text: Active Arf1 was detected by using The Thermo Scientific Pierce Active Arf1 Pull-Down and Detection Kit (Cat #16121) with liver cancer Huh-7 cell lysate. It is a complete kit for selective enrichment and detection of GTP-bound Arf1 GTPase through specific protein interaction with the GGA3 protein-binding domain (FIG. 1).

B16-F10 melanoma [5] = assay: Drug-treated B16-F10 cells in athymic nude mice; assay type: in vivo; parameters: unit not given here; details: cells treated with 10 μM Du 102
Experimental: (§1) The immunogenicity of the reagents can be tested in mouse vaccination models (Obeid et al., 2007; Sagiv barfi et al., 2018). One flank of the mouse was injected with drug treated tumor cells, followed one week later by a second injection of syngeneic tumor cells. We tested the vaccine efficacy in CT-26 colon cancer, B16-F10 melanoma, and 4T1 breast cancer treated with DMSO or du102.
(§2) Cells will be treated with 10 μM Du 102 or DMSO treated CT26, 4T1 and B16-F10 tumor cells (5×10^5\1×10^5 and 5×10^5, respectively) were subcutaneously inoculated into 6-week-old female mice. After 7 days, equal amounts of corresponding tumor cells were seeded to the right side. Tumor cell lines were mixed with Matrigel (GIBCO, cat s̆ 354234) or resuspended in PBS and injected subcutaneously or intradermally.

4T1 breast carcinoma [6] = assay: Drug-treated 4T1 cells in athymic nude mice; assay type: in vivo; parameters: unit not given here; details: cells treated with 10 μM Du 102
Experimental: as §1, §2

T1 sequence (P84077 whole entry): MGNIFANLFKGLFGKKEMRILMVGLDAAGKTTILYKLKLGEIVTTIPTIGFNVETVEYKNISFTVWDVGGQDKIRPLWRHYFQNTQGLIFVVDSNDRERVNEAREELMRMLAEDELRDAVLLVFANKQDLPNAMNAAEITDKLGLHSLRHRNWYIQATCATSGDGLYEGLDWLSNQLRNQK

For “1H-indolo-5-carbaldehyde 5,6,7,8,9,10-hexahydrocycloocta[4,5]thieno[2,3-d]pyrimidin-4-ylhydrazone [Du 102]”, the “tumors on right side after vaccination on left side” value (“tumors on right side” for short) (B16-F10 melanoma [1]; Day 0) was 0, the “tumor size, left side with drug treatment” value (shortened to “tumor size, left side”) (B16-F10 melanoma [1]; Day 0) was 0 and the “tumors on right side” value (B16-F10 melanoma [1]; Day 5) was 0. The “tumor size, left side” value (B16-F10 melanoma [1]; Day 5) was 0, the “tumors on right side” value (B16-F10 melanoma [1]; Day 10) was 0 and the “tumor size, left side” value (B16-F10 melanoma [1]; Day 10) was 2. The “tumors on right side” value (B16-F10 melanoma [1]; Day 15) was 0.6, the “tumor size, left side” value (B16-F10 melanoma [1]; Day 15) was 8 and the “tumors on right side” value (B16-F10 melanoma [1]; Day 20) was 1.3. For the same substance, the “tumor size, left side” value (B16-F10 melanoma [1]; Day 20) was 57, the “tumors on right side” value (B16-F10 melanoma [1]; Day 25) was 9.1 and the “tumor size, left side” value (B16-F10 melanoma [1]; Day 25) was 81. The “tumors on right side” value (B16-F10 melanoma [1]; Day 30) was 21.3, the “tumor size, left side” value (B16-F10 melanoma [1]; Day 30) was 177 and the tumor suppressive effect [2] was “some tumor suppressive effect”. For the same substance, the tumor suppressive effect ([2]; listed as Dul02) was “effective tumor suppressive effects”, the MHC-1 ([3]; DMSO 0.6) was 51.7 and the MHC-II ([3]; DMSO 0.7) was 43.6. The CD4 ([3]; DMSO 1.0) was 13.2, the CD8 ([3]; DMSO 2.0) was 13.5 and the “tumors on right side” value (4T1 breast carcinoma [4]; Day 0) was 0. For the same substance, the “tumor size, left side” value (4T1 breast carcinoma [4]; Day 0) was 0, the “tumors on right side” value (4T1 breast carcinoma [4]; Day 5) was 0 and the “tumor size, left side” value (4T1 breast carcinoma [4]; Day 5) was 0. For the same substance, the “tumors on right side” value (4T1 breast carcinoma [4]; Day 10) was 0, the “tumor size, left side” value (4T1 breast carcinoma [4]; Day 10) was 2.3 and the “tumors on right side” value (4T1 breast carcinoma [4]; Day 15) was 0. For the same substance, the “tumor size, left side” value (4T1 breast carcinoma [4]; Day 15) was 18.4, the “tumors on right side” value (4T1 breast carcinoma [4]; Day 20) was 3.2 and the “tumor size, left side” value (4T1 breast carcinoma [4]; Day 20) was 63.5. The “tumors on right side” value (4T1 breast carcinoma [4]; Day 25) was 7.9, the “tumor size, left side” value (4T1 breast carcinoma [4]; Day 25) was 102.4 and the “tumors on right side” value (4T1 breast carcinoma [4]; Day 30) was 16.4. The “tumor size, left side” value (4T1 breast carcinoma [4]; Day 30) was 173.6, the “inhibition of arf1 activation” value (Arf1) was “potent inhibitors” and the “B16-F10 melanoma tumor in Athymic mice” value (B16-F10 melanoma [5]; Day 0) was 0. The “B16-F10 melanoma tumor in Athymic mice” value (B16-F10 melanoma [5]; Day 5) was 7.3, the “B16-F10 melanoma tumor in Athymic mice” value (B16-F10 melanoma [5]; Day 10) was 51.8 and the “B16-F10 melanoma tumor in Athymic mice” value (B16-F10 melanoma [5]; Day 15) was 202.7. The “B16-F10 melanoma tumor in Athymic mice” value (B16-F10 melanoma [5]; Day 20) was 355.9, the “B16-F10 melanoma tumor in Athymic mice” value (B16-F10 melanoma [5]; Day 25) was 853.4 and the “4T1 breast carcinoma tumor in Athymic mice” value (“4T1 breast carcinoma tumor” below) (4T1 breast carcinoma [6]; Day 0) was 0. For the same substance, the “4T1 breast carcinoma tumor” value (4T1 breast carcinoma [6]; Day 5) was 21.7, the “4T1 breast carcinoma tumor” value (4T1 breast carcinoma [6]; Day 10) was 41.3 and the “4T1 breast carcinoma tumor” value (4T1 breast carcinoma [6]; Day 15) was 163.3. For the same substance, the “4T1 breast carcinoma tumor” value (4T1 breast carcinoma [6]; Day 20) was 385.4 and the “4T1 breast carcinoma tumor” value (4T1 breast carcinoma [6]; Day 25) was 793.2.
